Measured values published in patent publication US7041785B1, “B1-bradykinin receptor antagonists and use thereof” (Université de Sherbrooke, priority 1996, dated 2006).
Non-standard residues stand in square brackets, D forms with d. Residues, ends and D or L forms follow the SMILES beside them. No end group written: not given here. d2Nal = N[C@H](Cc1ccc2ccccc2c1)C(=O)O

Columns and labels:
B2 receptor [1] = target: T1, B2 receptor (Oryctolagus cuniculus, UniProt Q28642); settings: vs BK; captopril 1 μmol/L; Inactive = no detectable antagonistic effect at ≦ 10 μg/ml
T1 sequence (Q28642 1-367): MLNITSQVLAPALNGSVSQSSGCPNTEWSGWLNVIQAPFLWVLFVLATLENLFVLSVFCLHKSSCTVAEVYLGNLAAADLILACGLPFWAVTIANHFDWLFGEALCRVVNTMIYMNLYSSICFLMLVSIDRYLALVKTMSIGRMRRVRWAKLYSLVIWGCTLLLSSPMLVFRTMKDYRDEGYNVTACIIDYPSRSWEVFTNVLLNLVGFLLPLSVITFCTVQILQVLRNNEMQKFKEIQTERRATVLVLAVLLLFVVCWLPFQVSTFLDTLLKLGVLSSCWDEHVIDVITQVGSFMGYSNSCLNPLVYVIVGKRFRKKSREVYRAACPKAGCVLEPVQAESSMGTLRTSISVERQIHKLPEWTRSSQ

human B2 receptor = target: T2, human B2 receptor (Homo sapiens, UniProt P30411); experiment: Human umbilical vein bioassay in presence of Lys(Leu8)desArg9BK, B2 receptor; assay type: cell-based; settings: vs BK, Lys(Leu8)desArg9BK 1 μmol/L present
T2 construct: Helical strips of HUV were prepared according to Gobeil et al; from tissue; host or cells: human umbilical vein helical strips
T2 sequence (P30411 1-391): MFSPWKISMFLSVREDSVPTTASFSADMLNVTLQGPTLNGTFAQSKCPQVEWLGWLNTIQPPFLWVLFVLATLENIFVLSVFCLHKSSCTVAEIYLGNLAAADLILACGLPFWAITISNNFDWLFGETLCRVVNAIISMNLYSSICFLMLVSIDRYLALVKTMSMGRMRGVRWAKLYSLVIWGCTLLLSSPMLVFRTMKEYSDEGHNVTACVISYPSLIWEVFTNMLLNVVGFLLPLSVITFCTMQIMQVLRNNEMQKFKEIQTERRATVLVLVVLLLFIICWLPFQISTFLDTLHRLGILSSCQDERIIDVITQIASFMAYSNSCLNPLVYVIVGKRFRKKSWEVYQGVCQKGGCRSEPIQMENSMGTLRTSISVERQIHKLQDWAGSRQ
Description: (§1) Tissues were taken from New Zealand white rabbits (1.5–2.5 kg) and Dunken Hartley guinea pigs (250–350 g) of either sex, killed by stunning and exsanguination. Umbilical cords were taken from healthy women 22–40 years old after spontaneous delivery at term. The rabbit jugular vein (RbJV), the guinea pig ileum (GPI), two preparations containing B2 receptors, the rabbit aorta (RbA) (B1 receptor) and the human umbilical vein (HUV), a mixed preparation containing both B1 and B2 receptors^10, were used. Helical strips of RbJV treated with 1 μmol/L of captopril to avoid peptide degradation by the angiotensin-converting enzyme (ACE), alias kininase II were prepared according to Gaudreau et al.^11 Helical strips of RbA devoid of endothelium were prepared according to Furchgott and Bhadrakom^12. Longitudinal segments of GPI were prepared with the procedure described by Rang^13. Helical strips of HUV were prepared according to Gobeil et al.^10. The tissues were suspended in 10-ml organ baths containing warm (37EC), oxygenated (95% O2–5% CO2) Krebs solution of the following composition in mmol/L; NaCl: 118.1; KCl: 4.7; CaCl26H2O: 2.5; KH2PO4: 1.2; MgSO47H2O: 1.18; NaHCO3: 25.0 and D-Glucose: 5.5. The RbA and the HUV were stretched with an initial tension of 2 g, whereas the RbJV and the GPI were loaded with 0.5 g. Changes of tension produced by the various agents were measured with Grass isometric transducers (model FT 03C, Grass Instrument Co., Quincy, Mass.). […] Before testing the drugs, the tissues were allowed to equilibrate for 60–120 min during which time the tissues were repeatedly washed and the tension readjusted every 15 min.
(§2) At the beginning of each experiment, a submaximal dose of bradykinin (BK) (9 nmol/L), was applied repeatedly on the RbJV, the GPI or the HUV to ensure that tissues responded with stable contractions. […] A similar protocol was used for the HUV.
(§3) Repeated applications of a singl and double concentration of BK (on RbJV, GPI and HUV) and of desArg^9BK (RbA and HUV) were made in the absence and in presence of the various peptides to evaluate their apparent affinities as antagonists, in terms of pA2 (-log10 of the molar concentration of antagonist that reduces the effect of a double concentration of agonist to that of a single one)^14. The antagonists were applied 10 min before measuring the myotropic effects of either BK (the B2 receptor agonist) or desArg^9BK (the B1 receptor agonist). […] All kinin antagonists were initially applied to tissues at concentration of 10 μg/mL to measure their potential agonistic activities (α^E) in comparison with BK (in the B2 receptor preparations) or desArg^9BK (in the B1 receptor preparations).

B2 receptor [2] = target: T1, B2 receptor; experiment: cell-based; settings: residual agonistic activity at 10 μg/mL in comparison with BK
Description: as §1, §2, §3

human B1 receptor = target: T3, human B1 receptor (Homo sapiens, UniProt P46663); experiment: cell-based; settings: for Human umbilical vein B1 receptor α^E: residual agonistic activity at 10 μg/mL
T3 sequence (P46663 1-353): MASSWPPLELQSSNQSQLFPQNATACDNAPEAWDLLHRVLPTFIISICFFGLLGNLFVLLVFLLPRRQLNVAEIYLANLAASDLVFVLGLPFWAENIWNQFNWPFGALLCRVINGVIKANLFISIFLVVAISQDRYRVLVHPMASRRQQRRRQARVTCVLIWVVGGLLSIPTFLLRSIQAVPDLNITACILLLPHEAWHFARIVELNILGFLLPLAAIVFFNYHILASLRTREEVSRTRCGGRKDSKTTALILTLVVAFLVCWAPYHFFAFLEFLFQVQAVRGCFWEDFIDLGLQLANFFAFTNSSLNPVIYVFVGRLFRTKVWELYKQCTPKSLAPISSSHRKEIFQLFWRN
Description: as §1, §2, §3

B1 receptor = target: T4, B1 receptor (Oryctolagus cuniculus, UniProt P48748); experiment: cell-based; settings: for Rb.A. α^E: residual agonistic activity at 10 μg/mL in comparison with desArg9BK
T4 sequence (P48748 1-352): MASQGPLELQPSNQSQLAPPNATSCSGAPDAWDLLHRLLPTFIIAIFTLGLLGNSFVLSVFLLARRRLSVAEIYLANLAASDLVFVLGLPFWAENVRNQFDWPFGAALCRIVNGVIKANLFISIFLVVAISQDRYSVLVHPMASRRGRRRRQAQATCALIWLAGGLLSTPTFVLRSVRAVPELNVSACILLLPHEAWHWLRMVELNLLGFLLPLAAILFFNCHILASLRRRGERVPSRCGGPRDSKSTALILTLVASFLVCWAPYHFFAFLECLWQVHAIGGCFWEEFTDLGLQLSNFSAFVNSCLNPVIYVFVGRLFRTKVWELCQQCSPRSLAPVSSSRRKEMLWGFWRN
Description: as §1, §2, §3

B2 receptor [3] = target: T5, B2 receptor (Cavia porcellus, UniProt O70526); experiment: cell-based
T5 sequence (O70526 1-372): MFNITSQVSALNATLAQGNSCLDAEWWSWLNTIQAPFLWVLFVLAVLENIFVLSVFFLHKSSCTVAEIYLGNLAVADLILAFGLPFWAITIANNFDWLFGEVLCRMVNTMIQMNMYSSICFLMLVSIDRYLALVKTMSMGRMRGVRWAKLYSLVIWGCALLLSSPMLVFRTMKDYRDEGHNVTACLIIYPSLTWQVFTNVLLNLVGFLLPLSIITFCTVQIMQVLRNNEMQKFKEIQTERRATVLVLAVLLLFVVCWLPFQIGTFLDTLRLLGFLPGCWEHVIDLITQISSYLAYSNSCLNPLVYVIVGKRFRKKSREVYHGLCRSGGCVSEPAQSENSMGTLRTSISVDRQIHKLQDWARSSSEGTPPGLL
Description: as §1, §2, §3

[4] = target: T6, angiotensin-converting enzyme (ACE) from rabbit lungs (Oryctolagus cuniculus, UniProt P12822); settings: after 30 min, same conditions and enzymatic dilution; cited from earlier work
T6 sequence (P12822 34-1310): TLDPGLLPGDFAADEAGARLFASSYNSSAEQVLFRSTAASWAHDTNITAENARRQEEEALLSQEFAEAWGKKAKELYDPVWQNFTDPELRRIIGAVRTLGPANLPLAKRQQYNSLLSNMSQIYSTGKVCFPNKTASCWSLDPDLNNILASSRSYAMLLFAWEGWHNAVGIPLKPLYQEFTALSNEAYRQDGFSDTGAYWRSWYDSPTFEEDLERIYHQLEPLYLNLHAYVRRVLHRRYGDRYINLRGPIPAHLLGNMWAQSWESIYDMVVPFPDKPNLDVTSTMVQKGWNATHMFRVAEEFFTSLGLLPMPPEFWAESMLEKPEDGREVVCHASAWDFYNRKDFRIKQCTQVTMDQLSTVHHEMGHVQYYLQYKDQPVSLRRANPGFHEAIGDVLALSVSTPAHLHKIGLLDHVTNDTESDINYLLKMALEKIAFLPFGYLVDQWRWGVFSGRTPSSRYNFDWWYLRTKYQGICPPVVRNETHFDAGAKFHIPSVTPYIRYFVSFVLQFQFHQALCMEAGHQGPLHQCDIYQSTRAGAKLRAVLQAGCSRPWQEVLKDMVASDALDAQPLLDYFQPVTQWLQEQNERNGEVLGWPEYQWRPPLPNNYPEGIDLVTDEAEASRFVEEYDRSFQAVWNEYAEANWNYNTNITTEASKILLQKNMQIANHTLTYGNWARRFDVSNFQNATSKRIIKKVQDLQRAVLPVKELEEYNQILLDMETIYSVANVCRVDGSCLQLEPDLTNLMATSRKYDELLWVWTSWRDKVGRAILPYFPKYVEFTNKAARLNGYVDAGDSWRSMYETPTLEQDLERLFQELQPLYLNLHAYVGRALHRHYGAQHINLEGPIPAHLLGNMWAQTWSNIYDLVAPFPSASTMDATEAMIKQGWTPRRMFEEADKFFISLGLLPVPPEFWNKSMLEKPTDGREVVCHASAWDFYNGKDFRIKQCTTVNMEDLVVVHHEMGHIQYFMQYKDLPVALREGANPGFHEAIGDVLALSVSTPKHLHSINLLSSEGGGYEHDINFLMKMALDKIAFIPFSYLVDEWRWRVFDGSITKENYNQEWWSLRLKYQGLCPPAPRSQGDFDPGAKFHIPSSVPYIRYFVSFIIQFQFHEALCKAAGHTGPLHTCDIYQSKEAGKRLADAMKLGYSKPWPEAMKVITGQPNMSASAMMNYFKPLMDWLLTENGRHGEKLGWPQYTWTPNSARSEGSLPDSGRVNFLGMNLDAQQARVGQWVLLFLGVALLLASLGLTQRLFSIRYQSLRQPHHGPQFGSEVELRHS

With `CC[C@H](C)[C@H](NC(=O)[C@@H](Cc1ccc2ccccc2c1)NC(=O)[C@H](CO)NC(=O)[C@H](Cc1ccccc1)NC(=O)CNC(=O)[C@@H]1CCCN1C(=O)[C@@H]1CCCN1C(=O)[C@H](CCCNC(=N)N)NC(=O)[C@H](CCCCN)NC(C)=O)C(=O)O` [Compound 19, AcLys(D-βNal^7, Ile^8)desArg^9BK] (Ac-KRPPGFS[d2Nal]I-OH; C-terminus assumed) as the compound, how does the “Rb.J.V. pA2” value (B2 receptor [1]) read?
Its value is “Inactive”.

What about the “Human umbilical vein B2 receptor pA2” value (human B2 receptor) of the same compound?
Its value is “Inactive”.

And the “Rb.J.V. α^E” value (B2 receptor [2])?
Its value is 0.09.

And the “Human umbilical vein B1 receptor α^E” value (human B1 receptor)?
The value was 0.

What about the “Rb.A. α^E” value (B1 receptor) of the same compound?
Its value is 0.

And the “G.P.I. pA2” value (B2 receptor [3]; vs BK, Inactive = no detectable antagonistic effect at ≦ 10 μg/ml, F.ag. full agonist, P.ag. partial agonist)?
Its value is “P.ag”.

Which “Rb.J.V. pA2” value (B2 receptor [1]) does the source give for “D-Arg(Hyp^3, D-Hyp^7(trans thiophenyl), Oic^8)desArg^9BK [Compound 34, reference compound]” here?
Its value is 7.52 ± 0.05.

What about the “Human umbilical vein B2 receptor pA2” value (human B2 receptor) of the same compound?
Its value is 5.12 ± 0.20.

And the “Rb.J.V. α^E” value (B2 receptor [2])?
Its value is 0.

And the “Human umbilical vein B1 receptor α^E” value (human B1 receptor)?
Its value is 0.

What about the “Human umbilical vein B1 receptor pA2” value (human B1 receptor; vs desArg9BK, HOE140 400 nmol/L present) of the same compound?
Its value is 8.55 ± 0.09.

And the “Rb.A. pA2” value (B1 receptor; apparent affinity as antagonist vs desArg9BK, antagonist applied 10 min before, Inactive = no detectable antagonistic effect at ≦ 10 μg/ml)?
The value was 8.27 ± 0.14.

And the “Rb.A. α^E” value (B1 receptor)?
The value was 0.

And the “G.P.I. α^E” value (B2 receptor [3]; residual agonistic activity at 10 μg/mL in comparison with BK)?
Its value is 0.

For RPPGFSPFR [BK], which “Metabolism of naturally-occurring kinins by ACE” value [4] is on record?
Its value is “fully metabolised”.
